System: Salmonella TA1538 and TA98
Assay: Ames test (preincubation method, metabolically activated, +x9mix)
Details: 0 to 5 mg; for Increase (times): maximum increase in the colony of the sample as compared with the solvent control: acetone as solvent control; for Toxicity (mutagenicity): judged against solvent control
Protocol: Ames test was conducted as an identical amest test with respect to representative examples of the intermediate of the present invention and control dyes having the same structure as that of the intermediate of the present invention, except that the ring was a pyridine ring instead of the phenyl ring.
The ames test was conducted in such a state that Salmonella TA1538 and TA98 were metabolically activated by a preincubation method (+x9mix). The dye was used in contentrations in five grades in the range of from 0 to 5 mg. Acetone was used as the solvent control. The toxicity was judged based on the maximum increase in the colony of the sample as compared with the solvent control. Specifically, when the increase in the reversion colony was twice or more as compared with that in the case of the control, the mutagenicity was judged as positive, while when the increase in the reversion colony was less than twice as compared with that in the case of the control, the mutagenicity was judged as negative.

SMILES	Increase (times): maximum increase in the colony of the sample as compared with the solvent control	Toxicity (mutagenicity)
CCN(CC)c1ccc(N=C2C=C(NC(C)=O)C(=O)C(Cl)=C2C)cc1	1.7 times	neg- ative
CCN(CC)c1ccc(N=C2C=C(NC(C)=O)C(=O)C(Cl)=C2C)cn1	1.5 times	neg- ative
CCN(CC)c1ccc(N=Nc2cn(-c3ccccc3)nc2C)cc1	2.2 times	pos- itive
CCN(CC)c1ccc(N=Nc2cn(-c3ccccc3)nc2C)cn1	1.5 times	neg- ative
